The record followed here is patent publication US20140221374A1, “RAF KINASE INHIBITORS” (Ruga Corporation, priority 2011, published 2014).

Bounds are passed on as bounds.

Assay [1] has as its system A375 cells (V600E activated B-RAF). The assay can be described thus: In vitro tumor cell growth inhibition, MTT, 72 hours. It is filed as cell-based. The note with it: Homo sapiens, A-375, 72 hours incubation. Here is the method: Briefly, growth inhibition of cells containing V600E activated B-RAF (A375, Colo205) versus cell lines with wild-type B-RAF (A431) were measured under anchorage-dependent conditions using MTT (3-(4,5-dimethylthiazol-2-yl)-2,5-diphenyltetrazolium bromide), following 72 hours incubation with either compound or vehicle, as previously described (Haass, N. K., et al., Clinical Cancer Res., 14: 230-239, 2008): Cell lines are obtained from the American Type Tissue Culture Collection (Maryland, USA) and cultured in media containing heat-inactivated 10% fetal bovine serum. Cell cultures were also maintained in 10 U/mL, penicillin, 100 μg/mL streptomycin and 2 mM glutamine. At least triplicate determinations for each individual test compound concentration were made and data plotted as mean±standard deviation relative to the control vehicle.

The target in assay [2] is V600E-mutated B-RAF (Homo sapiens, UniProt P15056, V600E). Description: In vitro assay for inhibition of mutant B-RAF kinase (recombinant V600E-mutated B-RAF, MEK (K97R) substrate). The conditions noted are these: 10 nM recombinant V600E-mutated B-RAF. It is filed as biochemical. Here is the method:
(§1) The ability of compounds described herein to inhibit RAF kinase activity were determined from biochemical kinase inhibition assays using recombinant RAF proteins as known in the art.
Solutions of varying concentrations of test compounds or vehicle were added to 10 nM recombinant V600E-mutated B-RAF proteins incubated in the presence of different concentrations of ATP and […] (K97R) as substrate, as previously described (Wilhelm, S. M., et al., Cancer Res., 64: 7099-7109, 2004; Mason, C. S., et al.; EMBO J. 18: 2137-2.148, 1999; Marais, R., et al., J. Biol. Chem., 272: 4378-4383, 1997). At least triplicate determinations for each individual test compound concentration were made and data plotted as mean±standard deviation relative to the control vehicle.

The target in assay [3] is wild-type C-RAF (Homo sapiens, UniProt P04049). Description: In vitro assay for inhibition of RAF kinases (recombinant wild-type C-RAF, MEK (K97R) substrate). It is filed as biochemical. The conditions noted are these: 10 nM recombinant wild-type C-RAF. Here is the method:
as §1
Solutions of varying concentrations of test compounds or vehicle were added to 10 nM recombinant wild-type A-RAF, wild-type B-RAF, or wild-type C-RAF proteins incubated in the presence of different concentrations of ATP and 1 μM MEK (K97R) as substrate, as previously described (Wilhelm, S. M., et al., Cancer Res., 64: 7099-7109, 2004; Mason, C S., et al., EMBO J. 18: 2137-2148, 1999; Marais, R., et al., J. Biol. Chem., 272: 4378-4383, 1997). At least triplicate determinations for each individual test compound concentration were made and data plotted as mean±standard deviation relative to the control vehicle.

Chain of V600E-mutated B-RAF (P15056 whole entry V600E): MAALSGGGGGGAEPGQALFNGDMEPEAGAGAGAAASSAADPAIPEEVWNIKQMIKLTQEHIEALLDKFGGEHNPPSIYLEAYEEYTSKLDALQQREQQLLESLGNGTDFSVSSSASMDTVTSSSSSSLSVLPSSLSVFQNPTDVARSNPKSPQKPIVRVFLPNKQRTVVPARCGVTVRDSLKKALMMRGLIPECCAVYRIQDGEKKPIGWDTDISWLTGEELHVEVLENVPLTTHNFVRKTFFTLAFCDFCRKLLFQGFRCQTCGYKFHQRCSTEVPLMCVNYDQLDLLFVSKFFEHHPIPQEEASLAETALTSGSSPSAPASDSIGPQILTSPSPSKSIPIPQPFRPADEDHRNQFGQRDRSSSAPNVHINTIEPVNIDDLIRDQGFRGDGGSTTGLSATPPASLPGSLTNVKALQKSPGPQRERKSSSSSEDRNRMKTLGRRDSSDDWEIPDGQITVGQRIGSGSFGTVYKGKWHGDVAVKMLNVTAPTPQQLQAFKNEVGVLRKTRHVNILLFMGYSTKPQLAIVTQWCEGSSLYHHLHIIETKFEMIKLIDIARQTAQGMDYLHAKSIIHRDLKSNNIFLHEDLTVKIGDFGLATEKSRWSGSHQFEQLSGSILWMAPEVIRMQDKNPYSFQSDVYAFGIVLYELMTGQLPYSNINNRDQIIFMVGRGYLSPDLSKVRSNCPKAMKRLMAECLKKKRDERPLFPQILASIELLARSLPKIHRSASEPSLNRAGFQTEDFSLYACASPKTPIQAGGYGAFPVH
Chain of wild-type C-RAF (P04049 whole entry): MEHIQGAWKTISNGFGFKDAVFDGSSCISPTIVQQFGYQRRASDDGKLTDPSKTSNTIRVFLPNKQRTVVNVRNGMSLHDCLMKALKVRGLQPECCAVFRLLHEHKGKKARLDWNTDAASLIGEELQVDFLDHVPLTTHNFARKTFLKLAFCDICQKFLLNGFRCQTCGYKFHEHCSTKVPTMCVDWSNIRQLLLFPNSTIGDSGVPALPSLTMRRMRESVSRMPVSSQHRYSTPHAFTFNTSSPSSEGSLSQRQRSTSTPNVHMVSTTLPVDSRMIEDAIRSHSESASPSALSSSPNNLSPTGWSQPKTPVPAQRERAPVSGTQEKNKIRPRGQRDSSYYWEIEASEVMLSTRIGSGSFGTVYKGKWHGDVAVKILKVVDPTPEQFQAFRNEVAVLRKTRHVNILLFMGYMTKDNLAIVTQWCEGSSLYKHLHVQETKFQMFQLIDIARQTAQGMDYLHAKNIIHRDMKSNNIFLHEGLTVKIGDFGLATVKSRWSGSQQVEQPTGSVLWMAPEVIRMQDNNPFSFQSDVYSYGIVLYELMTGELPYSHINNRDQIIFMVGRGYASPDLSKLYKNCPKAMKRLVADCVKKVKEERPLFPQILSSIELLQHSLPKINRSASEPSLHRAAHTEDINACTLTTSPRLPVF

The term IC50 denotes the concentration at which inhibition is half-maximal. Regarding `CCn1cc(-c2cccc(NC(=O)Nc3ccc(S(=O)(=O)NC)cc3)c2)c(-c2ccncc2)n1` [Example 56, 4-(3-(3-(1-ethyl-3-(pyridin-4-yl)-1H-pyrazol-4-yl)phenyl)ureido)-N-methylbenzenesulfonamide], the IC50 was greater than 10 µM in assay [1] and no more than 0.1 µM in assay [2].
The matching figures for `Cc1ccc(NC(=O)Nc2cccc(-c3sc(C)nc3-c3ccnc(N)c3)c2)cc1` [Example 20, 1-(3-(4-(2-aminopyridin-4-yl)-2-methylthiazol-5-yl)phenyl)-3-p-tolylurea]: 1 to 10 µM and no more than 0.1 µM.
As for `Cc1nc(-c2ccncc2)c(-c2ccc(F)c(NC(=O)Nc3ccc(C(F)(F)F)cc3)c2)s1` [Example 14, 1-(2-fluoro-5-(2-methyl-4-(pyridin-4-yl)thiazol-5-yl)phenyl)-3-(4-(trifluoromethyl)phenyl)urea], the IC50 is 1 to 10 µM in assay [1] and no more than 0.1 µM in assay [2].
On the same counts, the results for `Cc1nc(-c2ccnc(N)c2)c(-c2cccc(NC(=O)Nc3ccc(C(F)(F)F)cc3)c2)s1` [Example 26, 1-(3-(4-(2-aminopyridin-4-yl)-2-methylthiazol-5-yl)phenyl)-3-(4-(trifluoromethyl)phenyl)urea] are greater than 10 µM and no more than 0.1 µM.
On the same counts, the results for `Cc1nc(-c2ccncc2)c(-c2cccc(NC(=O)Nc3ccc(C(F)(F)F)cc3)c2)s1` [Example 9, 1-(3-(2-methyl-4-(pyridin-4-yl)thiazol-5-yl)phenyl)-3-(4-(trifluoromethyl)phenyl)urea] are 0.1 to 1 µM and no more than 0.1 µM.
Turning to `Cc1nc(-c2ccnc(N)c2)c(-c2cccc(NC(=O)Nc3ccc(Cl)cc3)c2)s1` [Example 21, 1-(3-(4-(2-aminopyridin-4-yl)-2-methylthiazol-5-yl)phenyl)-3-(4-chlorophenyl)urea], the IC50 in assay [1] is 1 to 10 µM; in assay [2] it was no more than 0.1 µM.
On the same counts, the results for `Cc1ccc(NC(=O)Cc2cccc(-c3sc(C)nc3-c3ccncc3)c2)cc1` [Example 47, 2-(3-(2-methyl-4-(pyridin-4-yl)thiazol-5-yl)phenyl)-N-p-tolylacetamide] are greater than 10 µM and no more than 0.1 µM.
On the same counts, the results for `Cc1nc(-c2ccncc2)c(-c2cccc(NC(=O)Nc3ccc(C(F)(F)F)cc3)c2F)s1` [Example 15, 1-(2-fluoro-3-(2-methyl-4-(pyridin-4-yl)thiazol-5-yl)phenyl)-3-(4-(trifluoromethyl)phenyl)urea] are 1 to 10 µM and 0.1 to 1 µM.
As for `Cc1nc(-c2ccncc2)c(-c2ccc(F)c(NC(=O)Nc3cccc(C(F)(F)F)c3)c2)s1` [Example 16, 1-(2-fluoro-5-(2-methyl-4-(pyridin-4-yl)thiazol-5-yl)phenyl)-3-(3-(trifluoromethyl)phenyl)urea], the values for the IC50 in assay [1] and in assay [2] were greater than 10 µM and no more than 0.1 µM, respectively.
The matching figures for `CCn1cc(-c2cccc(NC(=O)Nc3ccc(OC)cc3)c2)c(-c2ccncc2)n1` [Example 57, 1-(3-(1-ethyl-3-(pyridin-4-yl)-1H-pyrazol-4-yl)phenyl)-3-(4-methoxyphenyl)urea]: no more than 0.1 µM and no more than 0.1 µM.
With `CCn1cc(-c2cccc(NC(=O)Nc3ccc(C(F)(F)F)cc3)c2F)c(-c2ccncc2)n1` [Example 50, 1-(3-(1-ethyl-3-(pyridin-4-yl)-1H-pyrazol-4-yl)-2-fluorophenyl)-3-(4-(trifluoromethyl)phenyl)urea], the IC50 was 0.1 to 1 µM in assay [1], 1 to 10 µM in assay [3] and no more than 0.1 µM in assay [2].
Take `CCn1cc(-c2cccc(NC(=O)Nc3ccc(S(=O)(=O)N4CCOCC4)cc3)c2)c(-c2ccncc2)n1` [Example 59, 1-(3-(1-ethyl-3-(pyridin-4-yl)-1H-pyrazol-4-yl)phenyl)-3-(4-(morpholinosulfonyl)phenyl)urea]: the IC50 in assay [1] was greater than 10 µM; in assay [2], no more than 0.1 µM.
On the same counts, the results for `CCn1cc(-c2cccc(NC(=O)Nc3ccc(S(=O)(=O)CC)cc3)c2)c(-c2ccncc2)n1` [Example 54, 1-(3-(1-ethyl-3-(pyridin-4-yl)-1H-pyrazol-4-yl)phenyl)-3-(4-(ethylsulfonyl)phenyl)urea] are 1 to 10 µM and no more than 0.1 µM.
Regarding `Cc1nc(-c2ccncc2)c(-c2cccc(NC(=O)Nc3ccc(S(C)(=O)=O)cc3)c2)s1` [Example 17, 1-(3-(2-methyl-4-(pyridin-4-yl)thiazol-5-yl)phenyl)-3-(4-(methylsulfonyl)phenyl)urea], the IC50 in assay [1] was greater than 10 µM; in assay [2], no more than 0.1 µM.
`Cc1nc(-c2ccnc(N)c2)c(-c2cccc(NC(=O)Nc3ccc(C(F)(F)F)cc3)c2F)s1` [Example 24, 1-(3-(4-(2-aminopyridin-4-yl)-2-methylthiazol-5-yl)-2-fluorophenyl)-3-(4-(trifluoromethyl)phenyl)urea]: the IC50 in assay [1] and in assay [2] was 0.1 to 1 µM each time.
For `O=C(Nc1ccc(Cl)cc1)Nc1cccc(-c2sc(NCCN3CCOCC3)nc2-c2ccncc2)c1` [Example 34, 1-(4-chlorophenyl)-3-(3-(2-(2-morpholinoethylamino)-4-(pyridin-4-yl)thiazol-5-yl)phenyl)urea], the values for the IC50 in assay [1] and in assay [2] were 1 to 10 µM and no more than 0.1 µM, respectively.
As for `CCn1cc(-c2cccc(NC(=O)Nc3ccc(C(F)(F)F)cc3)c2)c(-c2ccncc2)n1` [Example 52, 1-(3-(1-ethyl-3-(pyridin-4-yl)-1H-pyrazol-4-yl)phenyl)-3-(4-(trifluoromethyl)phenyl)urea], the IC50 in assay [1] is no more than 0.1 µM; in assay [3], 0.1 to 1 µM; in assay [2], no more than 0.1 µM.
As for `CCn1cc(-c2ccc(F)c(NC(=O)Nc3ccc(Cl)cc3)c2)c(-c2ccncc2)n1` [Example 48, 1-(4-chlorophenyl)-3-(5-(1-ethyl-3-(pyridin-4-yl)-1H-pyrazol-4-yl)-2-fluorophenyl)urea], the IC50 in assay [1] was 1 to 10 µM; in assay [2], no more than 0.1 µM.
On the same counts, the results for `CCn1cc(-c2cccc(NC(=O)Nc3ccc(S(C)(=O)=O)cc3)c2)c(-c2ccncc2)n1` [Example 51, 1-(3-(1-ethyl-3-(pyridin-4-yl)-1H-pyrazol-4-yl)phenyl)-3-(4-(methylsulfonyl)phenyl)urea] are 1 to 10 µM and no more than 0.1 µM.
As to `Cc1nc(-c2ccncc2)c(-c2cccc(NS(=O)(=O)c3cc(F)ccc3F)c2)s1` [Example 41, 2,5-Difluoro-N-[3-(2-methyl-4-pyridin-4-yl-thiazol-5-yl)-phenyl]-benzenesulfonamide], the IC50 in assay [1] is 1 to 10 µM; in assay [2], no more than 0.1 µM.
The matching figures for `Cc1nc(-c2ccncc2)c(-c2ccc(F)c(NC(=O)Nc3cccc(Cl)c3)c2)s1` [Example 13, 1-(3-chlorophenyl)-3-(2-fluoro-5-(2-methyl-4-(pyridin-4-yl)thiazol-5-yl)phenyl)urea]: 1 to 10 µM and no more than 0.1 µM.
On the same counts, the results for `Cc1nc(-c2ccncc2)c(-c2cccc(NC(=O)Nc3ccc(Cl)cc3)c2)s1` [Example 3, 1-(4-chlorophenyl)-3-(3-(2-methyl-4-(pyridin-4-yl)thiazol-5-yl)phenyl)urea] are 1 to 10 µM and no more than 0.1 µM.
On the same counts, the results for `O=C(Nc1ccc(C(F)(F)F)cc1)Nc1cc(-c2sc(NCCN3CCOCC3)nc2-c2ccncc2)ccc1F` [Example 35, 1-(2-fluoro-5-(2-(2-morpholinoethylamino)-4-(pyridin-4-yl)thiazol-5-yl)phenyl)-3-(4-(trifluoromethyl)phenyl)urea] are 0.1 to 1 µM and no more than 0.1 µM.
As for `CCn1cc(-c2cccc(N3CCN(c4ccc(C(F)(F)F)cc4)C3=O)c2)c(-c2ccncc2)n1` [Example 53, 1-(3-(1-ethyl-3-(pyridin-4-yl)-1H-pyrazol-4-yl)phenyl)-3-(4-(trifluoromethyl)phenyl)imidazolidin-2-one], the IC50 in assay [1] was 1 to 10 µM; in assay [2], no more than 0.1 µM.
Turning to `Cc1nc(-c2ccnc(N)c2)c(-c2cc(NC(=O)Nc3ccc(C(F)(F)F)cc3)c(F)cc2F)s1` [Example 25, 1-(5-(4-(2-aminopyridin-4-yl)-2-methylthiazol-5-yl)-2,4-difluorophenyl)-3-(4-(trifluoromethyl)phenyl)urea], the IC50 was 1 to 10 µM in assay [1] and no more than 0.1 µM in assay [2].
The matching figures for `CCn1cc(-c2cccc(NC(=O)Nc3cccc(S(C)(=O)=O)c3)c2)c(-c2ccncc2)n1` [Example 55, 1-(3-(1-ethyl-3-(pyridin-4-yl)-1H-pyrazol-4-yl)phenyl)-3-(3-(methylsulfonyl)phenyl)urea]: greater than 10 µM and no more than 0.1 µM.
